Laboratory results taken from PubChem BioAssay (NCI).
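These data come from cells grown in 96-well plates and exposed to compound for 48 hours at five concentrations. Abbreviation: GI50, concentration required for 50% inhibition of growth. TGI: total growth inhibition.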

Key:
Experiment in all cases: NCI-60 cell line screen, 48 h; in the data active = GI50 below about 0.43 µM; inactive = the rest
SR leukemia = tested on: SR leukemia
HCT-116 colon = tested on: HCT-116 colon
ACHN renal = tested on: ACHN renal
OVCAR-5 ovarian = tested on: OVCAR-5 ovarian
UO-31 renal = tested on: UO-31 renal
SNB-75 CNS = tested on: SNB-75 CNS
OVCAR-4 ovarian = tested on: OVCAR-4 ovarian
SK-MEL-28 melanoma = tested on: SK-MEL-28 melanoma
UACC-257 melanoma = tested on: UACC-257 melanoma
RXF 393 renal = tested on: RXF 393 renal
SN12C renal = tested on: SN12C renal
BT-549 breast = tested on: BT-549 breast
SW-620 colon = tested on: SW-620 colon
SF-295 CNS = tested on: SF-295 CNS
COLO 205 colon = tested on: COLO 205 colon
SF-539 CNS = tested on: SF-539 CNS
OVCAR-8 ovarian = tested on: OVCAR-8 ovarian
MCF7 breast = tested on: MCF7 breast
A498 renal = tested on: A498 renal
TK-10 renal = tested on: TK-10 renal
K-562 leukemia = tested on: K-562 leukemia
OVCAR-3 ovarian = tested on: OVCAR-3 ovarian
HS 578T breast = tested on: HS 578T breast
RPMI-8226 leukemia = tested on: RPMI-8226 leukemia
SK-MEL-2 melanoma = tested on: SK-MEL-2 melanoma
MDA-MB-435 = tested on: MDA-MB-435
CCRF-CEM leukemia = tested on: CCRF-CEM leukemia
NCI-H460 lung = tested on: NCI-H460 lung
HCT-15 colon = tested on: HCT-15 colon
SNB-19 CNS = tested on: SNB-19 CNS
PC-3 prostate = tested on: PC-3 prostate
T-47D breast = tested on: T-47D breast
DU-145 prostate = tested on: DU-145 prostate
NCI-H226 lung = tested on: NCI-H226 lung
SK-OV-3 ovarian = tested on: SK-OV-3 ovarian
MALME-3M melanoma = tested on: MALME-3M melanoma
MOLT-4 leukemia = tested on: MOLT-4 leukemia
NCI-H23 lung = tested on: NCI-H23 lung
U251 CNS = tested on: U251 CNS
HOP-92 NSCLC = tested on: HOP-92 NSCLC
MDA-MB-231 breast = tested on: MDA-MB-231 breast
IGROV1 ovarian = tested on: IGROV1 ovarian
UACC-62 melanoma = tested on: UACC-62 melanoma
HL-60(TB) leukemia = tested on: HL-60(TB) leukemia
HOP-62 NSCLC = tested on: HOP-62 NSCLC
SK-MEL-5 melanoma = tested on: SK-MEL-5 melanoma
EKVX NSCLC = tested on: EKVX NSCLC
NCI-H522 lung = tested on: NCI-H522 lung
M14 melanoma = tested on: M14 melanoma
LOX IMVI melanoma = tested on: LOX IMVI melanoma
MDA-N = tested on: MDA-N
A549 NSCLC = tested on: A549 NSCLC
NCI/ADR-RES ovarian = tested on: NCI/ADR-RES ovarian
SF-268 CNS = tested on: SF-268 CNS
HCC-2998 colon = tested on: HCC-2998 colon
KM12 colon = tested on: KM12 colon
HT29 colon = tested on: HT29 colon
786-0 renal = tested on: 786-0 renal
CAKI-1 renal = tested on: CAKI-1 renal

CC1=C(/C=C/C(C)=C\C=C\C(C)=C\C(=O)Nc2ccc3c(c2)OCO3)C(C)(C)CCC1
36.5 µM: TGI (HCC-2998 colon)
47.7 µM: TGI (SR leukemia)
> 100 µM: TGI (HCT-116 colon) | TGI (ACHN renal) | TGI (OVCAR-5 ovarian) | TGI (UO-31 renal) | TGI (SNB-75 CNS) | TGI (OVCAR-4 ovarian) | TGI (SK-MEL-28 melanoma) | TGI (UACC-257 melanoma) | TGI (RXF 393 renal) | TGI (SN12C renal) | TGI (BT-549 breast) | TGI (SW-620 colon) | TGI (SF-295 CNS) | TGI (COLO 205 colon) | TGI (SF-539 CNS) | TGI (OVCAR-8 ovarian) | TGI (MCF7 breast) | TGI (A498 renal) | TGI (TK-10 renal) | TGI (K-562 leukemia) | TGI (OVCAR-3 ovarian) | TGI (HS 578T breast) | TGI (RPMI-8226 leukemia) | TGI (SK-MEL-2 melanoma) | TGI (MDA-MB-435) | TGI (CCRF-CEM leukemia) | TGI (NCI-H460 lung) | TGI (HCT-15 colon) | TGI (SNB-19 CNS) | TGI (PC-3 prostate) | TGI (T-47D breast) | TGI (DU-145 prostate) | TGI (NCI-H226 lung) | TGI (SK-OV-3 ovarian) | TGI (MALME-3M melanoma) | TGI (MOLT-4 leukemia) | TGI (NCI-H23 lung) | TGI (U251 CNS) | TGI (HOP-92 NSCLC) | TGI (MDA-MB-231 breast) | TGI (IGROV1 ovarian) | TGI (UACC-62 melanoma) | TGI (HOP-62 NSCLC) | TGI (EKVX NSCLC) | TGI (NCI-H522 lung) | TGI (M14 melanoma) | TGI (LOX IMVI melanoma) | TGI (MDA-N) | TGI (A549 NSCLC) | TGI (NCI/ADR-RES ovarian) | TGI (SF-268 CNS) | TGI (KM12 colon) | TGI (HT29 colon) | TGI (786-0 renal) | TGI (CAKI-1 renal)
68.1 µM: TGI (SK-MEL-5 melanoma)
18 µM: TGI (HL-60(TB) leukemia)
inactive: GI50 (SR leukemia) 11.3 µM | GI50 (HCT-116 colon) 29.5 µM | GI50 (ACHN renal) 89.1 µM | GI50 (OVCAR-5 ovarian) > 100 µM | GI50 (UO-31 renal) > 100 µM | GI50 (SNB-75 CNS) 7.41 µM | GI50 (OVCAR-4 ovarian) 21 µM | GI50 (SK-MEL-28 melanoma) > 100 µM | GI50 (UACC-257 melanoma) 29.4 µM | GI50 (RXF 393 renal) 24 µM | GI50 (SN12C renal) > 100 µM | GI50 (BT-549 breast) 98.5 µM | GI50 (SW-620 colon) > 100 µM | GI50 (SF-295 CNS) 31 µM | GI50 (COLO 205 colon) 37.8 µM | GI50 (SF-539 CNS) 51.3 µM | GI50 (OVCAR-8 ovarian) 93.1 µM | GI50 (MCF7 breast) 11.2 µM | GI50 (A498 renal) > 100 µM | GI50 (TK-10 renal) > 100 µM | GI50 (K-562 leukemia) 7.56 µM | GI50 (OVCAR-3 ovarian) > 100 µM | GI50 (HS 578T breast) > 100 µM | GI50 (RPMI-8226 leukemia) 2.93 µM | GI50 (SK-MEL-2 melanoma) 61.6 µM | GI50 (MDA-MB-435) 16.7 µM | GI50 (CCRF-CEM leukemia) 22.6 µM | GI50 (NCI-H460 lung) 50.5 µM | GI50 (HCT-15 colon) 36.4 µM | GI50 (SNB-19 CNS) > 100 µM | GI50 (PC-3 prostate) 41.2 µM | GI50 (T-47D breast) 25.4 µM | GI50 (DU-145 prostate) > 100 µM | GI50 (NCI-H226 lung) > 100 µM | GI50 (SK-OV-3 ovarian) > 100 µM | GI50 (MALME-3M melanoma) 7.93 µM | GI50 (MOLT-4 leukemia) 16.1 µM | GI50 (NCI-H23 lung) 17.7 µM | GI50 (U251 CNS) 77.5 µM | GI50 (HOP-92 NSCLC) 35.8 µM | GI50 (MDA-MB-231 breast) > 100 µM | GI50 (IGROV1 ovarian) > 100 µM | GI50 (UACC-62 melanoma) > 100 µM | GI50 (HL-60(TB) leukemia) 1.65 µM | GI50 (HOP-62 NSCLC) > 100 µM | GI50 (SK-MEL-5 melanoma) 16.2 µM | GI50 (EKVX NSCLC) 62.3 µM | GI50 (NCI-H522 lung) 14.1 µM | GI50 (M14 melanoma) > 100 µM | GI50 (LOX IMVI melanoma) 16.8 µM | GI50 (MDA-N) 55.7 µM | GI50 (A549 NSCLC) 84.8 µM | GI50 (NCI/ADR-RES ovarian) 73 µM | GI50 (SF-268 CNS) > 100 µM | GI50 (HCC-2998 colon) 3.97 µM | GI50 (KM12 colon) 39.2 µM | GI50 (HT29 colon) 11.9 µM | GI50 (786-0 renal) 40.2 µM | GI50 (CAKI-1 renal) > 100 µM

O=C1/C(=C(/Br)I)c2ccccc2-c2ccccc21
31.4 µM: TGI (SF-295 CNS)
6.2 µM: TGI (UO-31 renal)
0.516 µM: TGI (HL-60(TB) leukemia)
7.24 µM: TGI (K-562 leukemia)
32.6 µM: TGI (EKVX NSCLC)
30.2 µM: TGI (A498 renal)
22 µM: TGI (MDA-MB-435)
> 30.5 µM: TGI (SR leukemia)
5.27 µM: TGI (NCI-H522 lung)
41.2 µM: TGI (NCI-H460 lung)
25.2 µM: TGI (HCT-116 colon)
5.93 µM: TGI (CCRF-CEM leukemia)
4.22 µM: TGI (COLO 205 colon)
27 µM: TGI (SNB-19 CNS)
16.6 µM: TGI (HCT-15 colon)
24.6 µM: TGI (OVCAR-3 ovarian)
27.7 µM: TGI (IGROV1 ovarian)
8.12 µM: TGI (SW-620 colon)
28.7 µM: TGI (SF-539 CNS)
13.1 µM: TGI (RXF 393 renal)
33.7 µM: TGI (SN12C renal)
8.37 µM: TGI (RPMI-8226 leukemia)
30 µM: TGI (DU-145 prostate)
6.27 µM: TGI (MOLT-4 leukemia)
> 80.4 µM: TGI (T-47D breast)
29.8 µM: TGI (SK-OV-3 ovarian)
29.7 µM: TGI (SNB-75 CNS)
21.3 µM: TGI (TK-10 renal)
32.9 µM: TGI (MCF7 breast)
18.3 µM: TGI (HT29 colon)
31.5 µM: TGI (OVCAR-8 ovarian) | TGI (SK-MEL-2 melanoma)
19.1 µM: TGI (BT-549 breast)
16.9 µM: TGI (CAKI-1 renal)
32 µM: TGI (A549 NSCLC) | TGI (KM12 colon)
19.2 µM: TGI (MDA-MB-231 breast)
30.4 µM: TGI (NCI/ADR-RES ovarian)
23.7 µM: TGI (PC-3 prostate)
> 100 µM: TGI (HS 578T breast)
9.78 µM: TGI (MDA-N)
25.5 µM: TGI (OVCAR-5 ovarian) | TGI (U251 CNS)
36.6 µM: TGI (HOP-62 NSCLC)
31.1 µM: TGI (SK-MEL-5 melanoma) | TGI (SF-268 CNS)
11.4 µM: TGI (HCC-2998 colon)
18.5 µM: TGI (UACC-257 melanoma)
35.4 µM: TGI (NCI-H226 lung)
27.6 µM: TGI (M14 melanoma)
42.8 µM: TGI (SK-MEL-28 melanoma)
32.3 µM: TGI (OVCAR-4 ovarian)
10.2 µM: TGI (786-0 renal)
11.5 µM: TGI (MALME-3M melanoma)
21.2 µM: TGI (UACC-62 melanoma)
19 µM: TGI (ACHN renal)
46.4 µM: TGI (NCI-H23 lung)
8.07 µM: TGI (HOP-92 NSCLC)
12.2 µM: TGI (LOX IMVI melanoma)

O=C(O)Cn1ncn(NC(=O)Cc2ccccc2)c1=S
> 10 µM: TGI (SR leukemia) | TGI (HCT-116 colon) | TGI (ACHN renal) | TGI (OVCAR-5 ovarian) | TGI (UO-31 renal) | TGI (SNB-75 CNS) | TGI (OVCAR-4 ovarian) | TGI (SK-MEL-28 melanoma) | TGI (UACC-257 melanoma) | TGI (SN12C renal) | TGI (BT-549 breast) | TGI (SW-620 colon) | TGI (SF-295 CNS) | TGI (COLO 205 colon) | TGI (SF-539 CNS) | TGI (OVCAR-8 ovarian) | TGI (MCF7 breast) | TGI (A498 renal) | TGI (TK-10 renal) | TGI (K-562 leukemia) | TGI (OVCAR-3 ovarian) | TGI (HS 578T breast) | TGI (RPMI-8226 leukemia) | TGI (MDA-MB-435) | TGI (CCRF-CEM leukemia) | TGI (NCI-H460 lung) | TGI (HCT-15 colon) | TGI (SNB-19 CNS) | TGI (PC-3 prostate) | TGI (T-47D breast) | TGI (DU-145 prostate) | TGI (SK-OV-3 ovarian) | TGI (MALME-3M melanoma) | TGI (MOLT-4 leukemia) | TGI (NCI-H23 lung) | TGI (U251 CNS) | TGI (HOP-92 NSCLC) | TGI (MDA-MB-231 breast) | TGI (IGROV1 ovarian) | TGI (UACC-62 melanoma) | TGI (HOP-62 NSCLC) | TGI (SK-MEL-5 melanoma) | TGI (EKVX NSCLC) | TGI (NCI-H522 lung) | TGI (M14 melanoma) | TGI (LOX IMVI melanoma) | TGI (MDA-N) | TGI (A549 NSCLC) | TGI (NCI/ADR-RES ovarian) | TGI (SF-268 CNS) | TGI (HCC-2998 colon) | TGI (KM12 colon) | TGI (HT29 colon) | TGI (786-0 renal) | TGI (CAKI-1 renal)
